Series [1] relates to acid secretion of the perfused rat stomach stimulated by pentagastrin. Kind of series: Secretion-inhibiting action on perfused rat stomach (pentagastrin-stimulated acid secretion). The format is in vivo. The settings on record: anesthetized CD rats, female, dose 3 μmol/kg i.v.; for inhibition at 3 µmol/kg: Rattus norvegicus, iv. The text has this: Testing of the Secretion-inhibiting Action on Perfused Rat Stomach
In table A below, the influence of the compounds according to the invention after intravenous administration is shown on the acid secretion of the perfused rat stomach stimulated by pentagastrin.
The abdomen of anesthetized rats (CD rats, female, 200–250 g; 1.5 g/kg of i.m. urethane) was opened after tracheotomy by a median upper abdominal incision and a PVC catheter was fixed transorally in the esophagus and a further one via the pylorus such that the ends of the tubing just still projected into the gastric lumen. The catheter leading from the pylorus led outwards via a side opening in the right abdominal wall.
After thorough rinsing (about 50–100 ml), a continuous flow of warm physiological NaCl solution (0.5 ml/min, pH 6.8–6.9; Braun-Unita I) was continuously passed through the stomach at 37° C. The pH in the effluent, in each case collected at an interval of 15 minutes, was determined (pH meter 632, glass electrode EA 147; φ 5 mm, Metrohm) and the secreted HCl was determined by titration with a freshly prepared 0.01N NaOH solution to pH 7 (Dosimat 665 Metrohm).
Gastric secretion was stimulated by continuous infusion of 1 μg/kg (=1.65 ml/h) of i.v. pentagastrin (left femoral vein) about 30 min after the end of the operation (i.e. after determination of 2 preliminary fractions). The substances to be tested were administered intravenously in 1 ml/kg of fluid volume 60 min after the start of the pentagastrin continuous infusion.
The body temperature of the animals was kept at a constant 37.8–38° C. by means of infrared irradiation and heating pads (automatic, step-free control via a rectal temperature sensor).

25 compounds from US7189736B2, “Prodrugs of imidazopyridine derivatives” (Altana Pharma AG, priority 2000, dated 2007) can be followed below.

Each structure is given as a SMILES string.

What is called melting point is the temperature of the solid-liquid transition. Broadly, the inhibition is the drop in the measured response relative to a control, in per cent. Higher therefore signals a strong effect.

Turning to `CO[C@@H]1c2ccn3c(C)c(C)nc3c2N[C@H](c2ccccc2)[C@H]1OC(=O)c1cccc([N+](=O)[O-])c1` [Example 17, (7R,8R,9R)-7-Methoxy-2,3-dimethyl-8-(3-nitrobenzoyloxy)-9-phenyl-7,8,9,10-tetra-hydroimidazo[1,2-h][1,7]naphthyridine], the melting point lay within 80 to 84 °C.
The same measure, in the same setting: under `CCN(CC)C(=O)O[C@@H]1[C@@H](c2ccccc2)Nc2c(ccn3c(C)c(C)nc23)[C@@H]1OCCOC` [Example 22, (7S,8R,9R)-7-(2-Methoxyethoxy)-8-(N,N-diethylaminocarbonyloxy)-2,3-dimethyl-9-phenyl-7,8,9,10-tetrahydroimidazo[1,2-h][1,7]naphthyridine] stands 50 to 52 °C.
Compound `COCCO[C@@H]1c2ccn3c(C)c(C)nc3c2N[C@H](c2ccccc2)[C@H]1OC(=O)c1ccc([N+](=O)[O-])cc1` [Example 12, (7R,8R,9R)-7-(2-Methoxyethoxy)-2,3-dimethyl-8-(4-nitrobenzoyloxy)-9-phenyl-7,8,9,10-tetrahydroimidazo[1,2-h][1,7]naphthyridine] yielded a melting point of 133 to 134 °C.
The compound `CO[C@H]1c2ccn3c(C)c(C)nc3c2N[C@H](c2ccccc2)[C@H]1OC(=O)c1ccccc1` [Example 11, (7S,8R,9R)-8-Benzoyloxy-7-methoxy-2,3-dimethyl-9-phenyl-7,8,9,10-tetrahydro-imidazo[1,2-h][1,7]naphthyridine] came in with a melting point of 78 to 80 °C.
Compound `COCCO[C@@H]1c2ccn3c(C)c(C)nc3c2N[C@H](c2ccccc2)[C@H]1OC(=O)CN(C)C` [Example 20, (7R,8R,9R)-7-(2-Methoxyethoxy)-2,3-dimethyl-8-(N,N-dimethylaminomethyl-carbonyloxy)-9-phenyl-7,8,9,10-tetrahydroimidazo[1,2-h][1,7]naphthyridine] yielded a melting point of 114 to 115 °C.
For the compound `COCCO[C@@H]1c2ccn3c(C)c(C)nc3c2N[C@H](c2ccccc2)[C@H]1OC(=O)c1ccc(OC)cc1` [Example 19, (7R,8R,9R)-7-(2-Methoxyethoxy)-2,3-dimethyl-8-(4-methoxybenzoyloxy)-9-phenyl-7,8,9,10-tetrahydroimidazo[1,2-h][1,7]naphthyridine], the melting point was 150 to 151 °C.
The same measure, in the same setting: under `COCC(=O)O[C@@H]1[C@@H](c2ccccc2)Nc2c(ccn3c(C)c(C)nc23)[C@@H]1OC` [Example 40, (7S,8R,9R)-2,3-Dimethyl-7-methoxy-8-methoxyacetyloxy-9-phenyl-7,8,9,10-tetrahydroimidazo[1,2-h][1,7]naphthyridine] stands 73 to 75 °C; under `COCCO[C@@H]1c2ccn3c(C)c(C)nc3c2N[C@H](c2ccccc2)[C@H]1OC(=O)OC1CC(C)CCC1C(C)C` (stereo partly drawn) [Example 26, (7R,8R,9R)-8-[(+)-Menthyloxycarbonyloxy]-7-(2-methoxyethoxy)-2,3-dimethyl-9-phenyl-7,8,9,10-tetrahydroimidazo[1,2-h][1,7]naphthyridine], 127 to 129 °C; under `COCCO[C@@H]1c2ccn3c(C)c(C)nc3c2N[C@H](c2ccccc2)[C@H]1OC(=O)OC` [Example 8, (7R,8R,9R)-8-Methoxycarbonyloxy-7-(2-methoxyethoxy)-2,3-dimethyl-9-phenyl-7,8,9,10-tetrahydroimidazo[1,2-h][1,7]naphthyridine], 176 to 177 °C.
The same measure, in the same setting: under `COCCO[C@H]1c2ccn3c(C)c(C)nc3c2N[C@H](c2ccccc2)[C@H]1OC(=O)c1ccccc1` [Example 7, (7S,8R,9R)-8-Benzoyloxy-7-(2-methoxyethoxy)-2,3-dimethyl-9-phenyl-7,8,9,10tetrahydroimidazo[1,2-h][1,7]naphthyridine] stands 78 to 80 °C.
Compound `COCCO[C@H]1c2ccn3c(C)c(C)nc3c2N[C@H](c2ccccc2)[C@H]1OC(C)=O` [Example 1, (7S,8R,9R)-8-Acetoxy-7-(2-methoxyethoxy)-2,3-dimethyl-9-phenyl-7,8,9,10-tetra-hydroimidazo[1,2-h][1,7]naphthyridine] displayed an inhibition at 3 µmol/kg in series [1] of 100%.
Compound `COCCO[C@H]1c2ccn3c(C)c(C)nc3c2N[C@H](c2ccccc2)[C@H]1OC(=O)c1ccc(OC)cc1` [Example 18, (7S,8R,9R)-7-(2-Methoxyethoxy)-2,3-dimethyl-8-(4-methoxybenzoyloxy)-9-phenyl-7,8,9,10-tetrahydroimidazo[1,2-h][1,7]naphthyridine] gave a melting point of 82 to 83 °C.
On the same count and under the same terms, under `COCCO[C@H]1c2ccn3c(C)c(C)nc3c2N[C@H](c2ccccc2)[C@H]1OC(=O)OC1CC(C)CCC1C(C)C` (stereo partly drawn) [Example 27, (7S,8R,9R)-8-[(+)-Menthyloxycarbonyloxy]-7-(2-methoxyethoxy)-2,3-dimethyl-9-phenyl-7,8,9,10-tetrahydroimidazo[1,2-h][1,7]naphthyridine] stands 63 to 65 °C.
Same read-out and setting: under `CO[C@@H]1c2ccn3c(C)c(C)nc3c2N[C@H](c2ccccc2)[C@H]1OC(=O)c1ccccc1` [Example 10, (7R,8R,9R)-8-Benzoyloxy-7-methoxy-2,3-dimethyl-9-phenyl-7,8,9,10-tetrahydro-imidazo[1,2-h][1,7]naphthyridine] stands 82 to 84 °C; under `CCO[C@@H]1c2ccn3c(C)c(C)nc3c2N[C@H](c2ccccc2)[C@H]1OC(C)=O` [Example 4, (7R,8R,9R)8-Acetoxy-7-ethoxy-2,3-dimethyl-9-phenyl-7,8,9,10-tetrahydroimidazo-[1,2-h][1,7]naphthyridine], 182 to 184 °C; under `CCN(CC)C(=O)O[C@@H]1[C@@H](c2ccccc2)Nc2c(ccn3c(C)c(C)nc23)[C@H]1OC` [Example 41, (7R,8R,9R)8-(N,N-Diethylaminocarbonyloxy)-2,3-dimethyl-7-methoxy-9-phenyl 7,8,9,10-tetrahydroimidazo[1,2-h][1,7]naphthyridine], 123 to 124 °C.
Same read-out and setting: under `CO[C@@H]1c2ccn3c(C)c(C)nc3c2N[C@H](c2ccccc2)[C@H]1OC(=O)c1ccccc1` [Example 47, (7R,8R,9R)-8-Benzoyloxy-2,3-dimethyl-7-methoxy-9-phenyl-7,8,9,10-tetrahydro-imidazo[1,2-h][1,7]naphthyridine] stands 92 to 93 °C; under `COC(=O)O[C@@H]1[C@@H](c2ccccc2)Nc2c(ccn3c(C)c(C)nc23)[C@H]1OC` [Example 43, (7R,8R,9R)7-Methoxy-8-methoxycarbonyloxy-2,3-dimethyl-9-phenyl 7,8,9,10-tetrahydroimidazo[1,2-h][1,7]naphthyridine], 178 to 179 °C.
For `CO[C@@H]1c2ccn3c(C)c(C)nc3c2N[C@H](c2ccccc2)[C@H]1OC(C)=O` [Example 3, (7R,8R,9R)-8-Acetoxy-7-methoxy-2,3-dimethyl-9-phenyl-7,8,9,10-tetrahydro-imidazo[1,2-h][1,7]naphthyridine], the melting point was 197 to 199 °C. For the same compound, the inhibition at 3 µmol/kg in series [1] is 100%.
With `CO[C@@H]1c2ccn3c(C)c(C)nc3c2N[C@H](c2ccccc2)[C@H]1OC=O` [Example 45, (7R,8R,9R)-2,3-Dimethyl-8-formyloxy-7-methoxy-9-phenyl-7,8,9,10-tetrahydro-imidazo[1,2-h][1,7]naphthyridine], the melting point is 152 to 153 °C.
Consider `COCCO[C@@H]1c2ccn3c(C)c(C)nc3c2N[C@H](c2ccccc2)[C@H]1OC(C)=O` [Example 2, (7R,8R,9R)-8-Acetoxy-7-(2-methoxyethoxy)-2,3-dimethyl-9-phenyl-7,8,9,1,0-tetra-hydroimidazo[1,2-h][1,7]naphthyridine], for which the “Inhibition of acid secretion (%)” value in series [1] is 100%.
The compound `CCC(=O)O[C@@H]1[C@@H](c2ccccc2)Nc2c(ccn3c(C)c(C)nc23)[C@H]1OCCOC` [Example 5, (7R,8R,9R)-7-(2-Methoxyethoxy)-2,3-dimethyl-9-phenyl-8-propionyloxy-7,8,9,10-tetrahydroimidazo[1,2-h][1,7]naphthyridine] returned a melting point of 106 to 107 °C.
The same measure, in the same setting: under `CCN(CC)C(=O)O[C@@H]1[C@@H](c2ccccc2)Nc2c(ccn3c(C)c(C)nc23)[C@@H]1OC` [Example 42, (7S,8R,9R)8-(N,N-Diethylaminocarbonyloxy)-2,3-dimethyl-7-methoxy-9-phenyl 7,8,9,10-tetrahydroimidazo[1,2-h][1,7]naphthyridine] stands 97 to 98 °C; under `COC(=O)O[C@@H]1[C@@H](c2ccccc2)Nc2c(ccn3c(C)c(C)nc23)[C@@H]1OC` [Example 44, (7S,8R,9R)7-Methoxy-8-methoxycarbonyloxy-2,3-dimethyl-9-phenyl 7,8,9,10-tetrahydroimidazo[1,2-h][1,7]naphthyridine], 90 to 91 °C.
The same measure, in the same setting: under `COCCO[C@H]1c2ccn3c(C)c(C)nc3c2N[C@H](c2ccccc2)[C@H]1OC(=O)CN(C)C` [Example 21, (7S,8R,9R)-7-(2-Methoxyethoxy)-2,3-dimethyl-8-(N,N-dimethylaminomethyl-carbonyloxy)-9-phenyl-7,8,9,10-tetrahydroimidazo[1,2-h][1,7]naphthyridine] stands 206 to 207 °C.
